Test results from US4186184A, “Selective administration of drug with ocular therapeutic system” (priority 1979, dated 1980).

Columns and labels:
[1] = in vivo
Procedure: Ocular dispensing system of elliptical shape for administering a drug to the tissue compartments of the eye over a prolonged period of time and having a length of 4 to 20 millimeters, a width of 1 to 15 millimeters and a thickness of 0.1 to 4 millimeters are prepared by mixing liquid polydimethylsiloxane, chloramphenicol and stannous octate and curing the mixture at room temperature. The resulting matrix is placed in a pre-shaped and sized ethylene-vinyl acetate copolymer tube and the opened end adhesively sealed to provide a solid matrix containing drug. Then, 90% of the exposed surface of the copolymer is surrounded with cross-linked drug impermeable polyamide.

[2] = Drug release rate through system membranes (Example 8); type: physicochemical; details: area 1 cm^2, membranes 2 mils thick
Procedure: Following the procedure set forth in Example 1, an ocular drug delivery system shaped like a circle 6 mm by 2.5 mm is prepared according to the described procedure except one of the membrane is formed from commercially available laminate of cellulose acetate and nylon-66 that is substantially impermeable to the passage of hydrocortisone alcohol in the reservoir of the system. The area of the system is 1 cm^2, and the membranes are 2 mils thick. The drug release rate for the ethylene-vinyl acetate copolymer film which is permeable to the steroid is about 40 micrograms per hour, and the release rate for the laminate cellulose acetate nylon is about 1 to 2 micrograms per hour.

[3] = rabbit, in vivo
[4] = Release of drug from osmotic ocular therapeutic system in simulated ocular aqueous environment (UV, 215 nm); type: physicochemical
Procedure: A drug delivery system for the prolonged release of pilocarpine nitrate to the internal part of the eye is prepared and tested in the following manner: first, a reservoir formed of a drug and a polymer in intimate mixture is prepared according to the described procedure. A 7 gram portion of micronized pilocarpine nitrate is admixed with 3 grams of an ethylene-vinyl acetate copolymer having a vinyl acetate content of about 40% and having a melt index of […], as measured by ASTM D 1238-modified test. The copolymer has a tensile strength of about 600-700 psi and an elongation at break of 1400% to 1500%. It is impermeable to pilocarpine nitrate but permeable to water. […] The pilocarpine nitrate micronized particles are on average ~40 microns in diameter. The mixture is heated to 120° C. and cast as a 0.6 mm thick film. Next, a thin, water and drug impermeable thin film of butyl rubber is laminated to one side of the film thereby forming a system with a single drug portal. Finally, a number of 6 mm discs, suitable in size for insertion and retention in the eye, are cut from the 0.6 mm thick film. These discs have a portal with a surface area of […]. Osmotic bursting devices are the invention of Michaels and Gulloid as described in United States Patent Application Ser. No. 578,979 filed on May 19, 1975.
The release of drug from the ocular therapeutic system is determined by placing the systems in a simulated ocular aqueous environment. The outermost drug depots imbibs water through the sole exposed surface, swell, and burst their enclosing membranes, releasing their drug from the reservoir and exposing innermost depots. The amount of drug released in this rate controlled osmotic system is monitored by a UV spectrometer set at 215 nanometer wavelength. A relatively rapid release of pilocarpine nitrate begins to be noticed. The release continues for about 22 hours at a rate gradually decreasing from an initial 400 micrograms per hour to about 250 micrograms per hour after 22 hours. After 22 hours, the release rate falls rapidly.

[5] = cited from earlier work
[6] = parameters: species or system New Zealand white rabbits; details: rabbit, in vivo
Procedure: After the ocular systems were in the cul-de-sac 24 hours, they were removed, and a tear sample collected for measuring its pilocarpine content. Then, the systems were returned to the cul-de-sac for one-half hour, the rabbits sacrificed, and an aqueous humor sample immediately withdrawn for measuring the pilocarpine content thereof.
The sutures thus placed, restricted the movement of the ocular systems so that lateral and vertical movement of the ocular systems could not exceed a distance of more than 2 mm. Tear samples were collected and processed in the same way as were tear samples from ocular systems releasing 20 and 40 micrograms per hour.
A second set of ocular systems were used in these experiments and they were manufactured with a size and shape that corresponded to the above ocular systems, except that these latter systems were unireleasing ocular systems. That is, the ocular systems released pilocarpine from a single portal. […] These systems were positioned in the cul-de-sac, with the portal oriented towards the sclera, and tears and aqueous humor samples were taken and analyzed for their pilocarpine content as described above. […]
Selection of an ocular drug receptor site for administering a drug thereto can be easily ascertained by following the above procedures. […] For example, the physiological effect can be determined by measuring ocular pressure and increased vision. […]

[7] = Example 16, single portal osmotic system

## O=C(N[C@H](CO)[C@H](O)c1ccc([N+](=O)[O-])cc1)C(Cl)Cl [chloramphenicol]
[1]
  Discomfort or irritation in the eye: no discomfort or irritation

## C[C@]12CCC(=O)C=C1CC[C@@H]1[C@@H]2[C@@H](O)C[C@@]2(C)[C@H]1CC[C@]2(O)C(=O)CO [hydrocortisone alcohol]
[2]
  Drug release rate for the ethylene-vinyl acetate copolymer film: about 40 micrograms per hour

## CC[C@@H]1C(=O)OC[C@@H]1Cc1cncn1C [pilocarpine nitrate]
[3]
  Aqueous concentrations of osmotic system compared with diffusional systems: substantially similar
[4]; Example 16, release rate falls rapidly thereafter
  Duration of release: about 22 hours
[4]; [7]
  Release rate after 22 hours: about 250 micrograms per hour
  Release rate, initial: 400 micrograms per hour
[5]
  Solubility in water: about 25%

## CC[C@@H]1C(=O)OC[C@@H]1Cc1cncn1C [pilocarpine]
[6]
  Absorption and transfer into aqueous humor from bulbar side relative to palpebral side: at least 10 times
[3]
  Aqueous humor pilocarpine concentration increase per 5 μg/hr increase in rate of release per portal: 0.4 μg/ml per 5 μg/hr
  Mean aqueous humor pilocarpine concentration with palpebral delivery relative to bulbar delivery: 11%
